Reference: US10660939B2, “Therapies for obesity, diabetes and related indications” (Palatin Technologies, Inc., priority 2015, dated 2020)

Assays:
hMC4r [1] = biological target: T1, hMC4r (Homo sapiens, UniProt P32245); assay: competitive inhibition binding assay with [I125]-NDP-α-MSH, membrane homogenates of HEK-293 cells; conditions: averaged values, not marked *: [I125]-NDP-α-MSH; read-out: MC4r Ki
T1 construct: expressed in transfected cells; host or cells: HEK-293
Experimental: Assays were performed in 96 well GF/B Millipore multiscreen filtration plates (MAFB NOB10) pre-coated with 0.5% bovine serum albumin (Fraction V). […] After incubation for 60 minutes at 37° C., the assay mixture was filtered and the membranes washed three times with ice-cold buffer. Filters were dried and counted in a gamma counter for bound radioactivity. […] Maximal specific binding (100%) was defined as the difference in radioactivity (cpm) bound to cell membranes in the absence and presence of 1 μM NDP-α-MSH. […] Each assay was conducted in triplicate and the actual mean values are described, with results less than 0% reported as 0%. Ki values for test peptides of the present invention were determined using Graph-Pad Prism® curve-fitting software.

hMC4r [2] = biological target: T1, hMC4r; assay: cAMP accumulation functional assay in HEK-293 cells expressing hMC4r; format: cell-based; conditions: agonist = 70% or greater intrinsic activity
Experimental: Accumulation of intracellular cAMP was examined as a measure of the ability of the MC4r peptides to elicit a functional response in HEK-293 cells that express MC4r. Confluent HEK-293 cells that express recombinant hMC4r were detached from culture plates by incubation in enzyme-free cell dissociation buffer. Dispersed cells were suspended in Earle's Balanced Salt Solution containing 10 mM HEPES (pH 7.5), 1 mM MgCl2, 1 mM glutamine, 0.5% albumin and 0.3 mM 3-isobutyl-1-methyl-xanthine (IBMX), a phosphodiesterase inhibitor. […] Cells were exposed for 15 minutes at 37° C. to peptides of the present invention dissolved in DMSO (final DMSO concentration of 1%) at a concentration range of 0.05-5000 nM in a total assay volume of 200 μL. […] Data analysis was performed by nonlinear regression analysis with Graph-Pad Prism® software. The maximum efficacies of the test peptides of the present invention were compared to that achieved by the reference melanocortin agonist NDP-α-MSH.

hMC4r [3] = biological target: T1, hMC4r; assay: competitive inhibition binding assay with Eu-NDP-α-MSH (time-resolved fluorometry)
Experimental: After incubation for 90 minutes at 37° C., the reaction was stopped by filtration over AcroWell 96-well filter plates (Pall Life Sciences). The filter plates were washed 4 times with 200 μL of ice-cold phosphate-buffered saline. DELFIA Enhancement solution (PerkinElmer Life Sciences) was added to each well. […] Each assay was conducted in duplicate and mean values were utilized. Ki values were determined by curve-fitting with Graph-Pad Prism® software using a one-site fixed-slope competition binding model.

[4] = DIO mice, single daily subcutaneous bolus dose of Peptide No. 154 (Example 10); format: in vivo, mouse; conditions: single daily subcutaneous dose of 3 mg/kg, on day 5, ±0.6 SEM
Experimental: 10. […] By contrast, animals receiving a single daily subcutaneous dose of 3 mg/kg continuously lost weight over 5 days, and reached a maximum weight loss on day 5 of 4.2 g±0.6 SEM compared to baseline (study day 0).

[5] = diet induced obese mice, Peptide No. 154 with GLP-1, Alzet pumps (Example 8); format: in vivo, mouse; conditions: DIO mice, continuous infusion of 30 mg/kg/day; lost weight only for the first two days; ±0.34 SEM
Experimental: Groups 1, 2 and 4 were provided ad libitum with a 45% high fat rodent diet. Animals in Group 3 were pair-fed to Group 2. The amount of food consumed in Group 2 was the amount of food given to Group 3 in the next 24 hour period. For group 3 (pair-fed group), the pump was implanted 1 day later than other groups to account for pair-feeding. On day −2 and day 6, animals from Groups 1, 2, and 4 were fasted overnight and baseline and terminal glucose tolerance tests (GTT) was conducted. GTT and insulin levels in Group 3 were conducted one day later. Body weight and food intake were measured each day. To conduct the GTT, on study day −2 (−1 for Group 3) (baseline test) and day 6 (7 for Group 3) (termination test), 1 g/kg glucose was orally administered. Glucose levels were taken prior to glucose administration and 15, 30, 60, 90 and 120 minutes post-glucose administration.
Data is expressed as percent change at the termination test, ±standard deviation (SD) from the baseline test. This was calculated as: (AUCday 7−AUCday −2)[…] In FIG. 1, diet induced obese mice were administered MC4r 154 (30 mg/kg/day) either with or without 0.1 mg/kg/day GLP-1, with one group pair fed to the MC4r 154 group but administered only GLP-1 (“Pair-Fed to MC4r 154+GLP-1”).
Data is shown as the average of body weight change in grams±standard error of the mean (SEM) from study day 0.

[6] = diet induced obese Sprague-Dawley rats, GLP-1 infusion and Peptide No. 154 b.i.d., fasted glucose and insulin (Example 9); format: in vivo, rat; conditions: DIO rats, 1.0 mg/kg Peptide No. 154 b.i.d. alone
Experimental: 9. MC4r 154 was evaluated with GLP-1 to determine effect on body weight and feed intake in diet induced obese Sprague-Dawley rats. Rats were acquired at 17 weeks and pre-conditioned for 5 weeks on high fat diet prior to dosing. No sharp increase in weight was noted, likely due to late onset of the high fat diet. At study day −2, baseline GTT and insulin levels were assessed on 16-hour fasted animals. Animals were then permitted a 2-day recovery period, and on study day 0, animals were randomized into treatment groups by body weight and Alzet continuous infusion pumps containing either vehicle or GLP-1 (for dosing at either 10 or 100 μg/kg/day) were implanted. Beginning on study day 1, body weight and feed weights were taken in the mornings. Beginning on study day 4, twice daily (b.i.d.) subcutaneous dosing of saline was initiated for all groups other than the treatment naïve group to acclimate the animals to handling and subcutaneous dosing. […] Animals were fasted for the 16 hours prior to the GTT.
Data is shown as the percent change from study day −2 baseline test±SEM.
FIG. 4 compares the fasted insulin levels at study day −2 and study day 12, with insulin measured after 16 hour fast and prior to GTT testing. Data is shown as ng/mL insulin±SEM.

[7] = diet induced obese rats, GLP-1 infusion and Peptide No. 154 twice daily, body weight and feed intake (Example 11); format: in vivo, rat; conditions: DIO rats
Experimental: 11. […] Each treatment group was compared to the vehicle group using t-test, one-way ANOVA or two-way ANOVA followed by Dunnett's multiple comparisons (GraphPad). A p value<0.05 was considered to represent a significant difference.
Individual body weights were measured on study days 1-9. Percent change in body weight is calculating according to this formula: 100*(value-baseline)/baseline, where value is the weight of the animal on study day in question and baseline is the weight of the same animal on study day −1.
On days 1-4, feeds were weighed at 0, and 24 hours after lights off. On days 5-9, feeds were weighed at 0, 2, 6 and 24 hours after lights off.

T1 sequence (P32245 whole entry): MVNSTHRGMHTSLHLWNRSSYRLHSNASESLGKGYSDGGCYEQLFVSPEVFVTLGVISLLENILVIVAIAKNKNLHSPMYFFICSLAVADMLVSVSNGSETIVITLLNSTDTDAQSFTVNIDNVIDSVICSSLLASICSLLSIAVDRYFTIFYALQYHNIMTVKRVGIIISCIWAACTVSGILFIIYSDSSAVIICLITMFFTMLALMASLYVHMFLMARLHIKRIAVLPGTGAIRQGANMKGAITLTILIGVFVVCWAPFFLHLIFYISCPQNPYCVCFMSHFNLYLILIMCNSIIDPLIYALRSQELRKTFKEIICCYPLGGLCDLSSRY

## CC(=O)N[C@@H](CCCNC(=N)N)C(=O)N[C@H]1CC(=O)NCCCC[C@@H](C(=O)O)NC(=O)[C@H](Cc2c[nH]c3ccccc23)NC(=O)[C@H](CCCNC(=N)N)NC(=O)[C@@H](Cc2ccccc2)NC(=O)[C@H](CCN)NC1=O [compound 164, Ac-Arg-cyclo(Asp-Dab-D-Phe-Arg-Trp-Lys)-OH]
hMC4r [1]
  Ki: 57 nM

## CC(=O)N[C@@H](CCCNC(=N)N)C(=O)N[C@H]1CC(=O)NCCCC[C@@H](C(N)=O)NC(=O)[C@H](Cc2c[nH]c3ccccc23)NC(=O)[C@H](CCCNC(=N)N)NC(=O)[C@@H](Cc2ccccc2)NC(=O)[C@H](C(C)C)NC1=O [Peptide No. 16, Ac-Arg-cyclo(Asp-Val-D-Phe-Arg-Trp-Lys)-NH2]
hMC4r [2]
  functional status at MC4r (agonist / partial agonist): partial agonist

## CC(=O)N[C@@H](CCCNC(=N)N)C(=O)N[C@H]1CCCC(=O)NCC[C@@H](C(N)=O)NC(=O)[C@H](Cc2c[nH]c3ccccc23)NC(=O)[C@H](CCCNC(=N)N)NC(=O)[C@@H](Cc2ccccc2)NC(=O)[C@H](CCN)NC1=O [compound 127, Ac-Arg-cyclo(hGlu-Dab-D-Phe-Arg-Trp-Dab)-NH2]
hMC4r [2]
  functional status at MC4r (agonist / partial agonist): agonist

## CC(=O)N[C@@H](CCCNC(=N)N)C(=O)N[C@H]1CCNC(=O)CCC[C@@H](C(N)=O)NC(=O)[C@H](Cc2c[nH]c3ccccc23)NC(=O)[C@H](CCCNC(=N)N)NC(=O)[C@@H](Cc2ccccc2)NC(=O)[C@H](CCN)NC1=O [compound 129, Ac-Arg-cyclo(Dab-Dab-D-Phe-Arg-Trp-hGlu)-NH2]
hMC4r [2]
  functional status at MC4r (agonist / partial agonist): agonist

## CC(=O)N[C@@H](CCCNC(=N)N)C(=O)N[C@H]1CC(=O)NCCCC[C@@H](C(N)=O)NC(=O)[C@H](Cc2c[nH]c3ccccc23)NC(=O)[C@H](CCCNC(=N)N)NC(=O)[C@@H](Cc2ccccc2)NC(=O)[C@H](CCC(N)=O)NC1=O [Peptide No. 32, Ac-Arg-cyclo(Asp-Gln-D-Phe-Arg-Trp-Lys)-NH2]
hMC4r [2]
  functional status at MC4r (agonist / partial agonist): agonist

## CC(=O)N[C@@H](CCCNC(=N)N)C(=O)N[C@H]1CCNC(=O)CCC[C@@H](C(N)=O)NC(=O)[C@H](Cc2c[nH]c3ccccc23)NC(=O)[C@H](CCCNC(=N)N)NC(=O)[C@@H](Cc2ccccc2)NC(=O)[C@H](Cc2c[nH]cn2)NC1=O [compound 128, Ac-Arg-cyclo(Dab-His-D-Phe-Arg-Trp-hGlu)-NH2]
hMC4r [2]
  functional status at MC4r (agonist / partial agonist): agonist

## CC(=O)N[C@@H](CCCNC(=N)N)C(=O)N[C@H]1CC(=O)NCCCC[C@@H](C(N)=O)NC(=O)[C@H](Cc2c[nH]c3ccccc23)NC(=O)[C@H](CCCNC(=N)N)NC(=O)[C@@H](Cc2ccccc2)NC(=O)[C@H](CCN)NC1=O [compound 163, Ac-Arg-cyclo(Asp-Dab-D-Phe-Arg-Trp-Lys)-NH2]
hMC4r [1]
  Ki: 4 nM

## CC(=O)N[C@@H](CCCNC(=N)N)C(=O)N[C@H]1CCCC(=O)NCC[C@@H](C(N)=O)NC(=O)[C@H](Cc2c[nH]c3ccccc23)NC(=O)[C@H](CCCNC(=N)N)NC(=O)[C@@H](Cc2ccccc2)NC(=O)[C@H](Cc2c[nH]cn2)NC1=O [compound 126, Ac-Arg-cyclo(hGlu-His-D-Phe-Arg-Trp-Dab)-NH2]
hMC4r [2]
  functional status at MC4r (agonist / partial agonist): agonist

## CC(=O)NCC[C@@H]1NC(=O)[C@@H](NC(=O)[C@H](CCCNC(=N)N)NC(C)=O)CC(=O)NCCCC[C@@H](C(N)=O)NC(=O)[C@H](Cc2c[nH]c3ccccc23)NC(=O)[C@H](CCCNC(=N)N)NC(=O)[C@@H](Cc2ccccc2)NC1=O [compound 114, Ac-Arg-cyclo(Asp-Dab(Acetyl)-D-Phe-Arg-Trp-Lys)-NH2]
hMC4r [3]
  Ki: 88 nM

## CC(=O)N[C@@H](CCCNC(=N)N)C(=O)N[C@H]1CCCNC(=O)CC[C@@H](C(N)=O)NC(=O)[C@H](Cc2c[nH]c3ccccc23)NC(=O)[C@H](CCCNC(=N)N)NC(=O)[C@@H](Cc2ccccc2)NC(=O)[C@H](CC(N)=O)NC1=O [Peptide No. 154, Ac-Arg-cyclo(Orn-Asn-D-Phe-Arg-Trp-Glu)-NH2]
[4]
  maximum weight loss compared to baseline (study day 0): 4.2 g
[5]
  maximum weight loss compared to baseline (study day 0): 1.76 g
[6]
  decrease in fasted plasma glucose, day -2 to day 12: most pronounced decrease
[7]
  appetite on day 9: recovered on day 9
[7]; Peptide No. 154 s.c. from day 5
  food intake after start of Peptide No. 154 dosing: decreased starting on day 5
[7]; days 5-9
  feed intake at 2 and 6 hours post lights off compared with vehicle: significant decreased feed intakes
[7]; subcutaneous dosing twice daily, days 5-10
  body weight compared with vehicle: decreased animal's body weight significantly

## CC(=O)N[C@@H](CCCNC(=N)N)C(=O)N[C@H]1CC(=O)NCCCC[C@@H](C(N)=O)NC(=O)[C@H](Cc2c[nH]c3ccccc23)NC(=O)[C@H](CCCNC(=N)N)NC(=O)[C@@H](Cc2ccccc2)NC(=O)[C@H](Cc2c[nH]cn2)NC1=O [Peptide No. 1, Ac-Arg-cyclo(Asp-His-D-Phe-Arg-Trp-Lys)-NH2]
hMC4r [2]
  functional status at MC4r (agonist / partial agonist): agonist
